Assay results published in ChEMBL document CHEMBL6134844, “Development of Next-Generation Antimalarial Acridones with Radical Cure Potential” (J Med Chem, 2025).

Experiments:
Plasmodium falciparum [1] = test: Antiplasmodial activity against asexual blood-stage (ABS) CQ-sensitive Plasmodium falciparum D6 infected in human erythrocytes assessed as reduction in fluorescence measured after 72 hrs by Malaria SYBR Green I-based Fluorescence (MSF) assay; type: functional, organism-based; conditions: D6, Erythrocyte
Plasmodium falciparum [2] = test: Antiplasmodial activity against asexual blood-stage (ABS) MDR Plasmodium falciparum Dd2 infected in human erythrocytes assessed as reduction in fluorescence measured after 72 hrs by Malaria SYBR Green I-based Fluorescence (MSF) assay; type: functional, organism-based; conditions: Dd2, Erythrocyte
Plasmodium falciparum [3] = test: Antiplasmodial activity against asexual blood-stage (ABS) ATV-resistant clinical isolate Plasmodium falciparum Tm90-C2B infected in human erythrocytes assessed as reduction in fluorescence measured after 72 hrs by Malaria SYBR Green I-based Fluorescence (MSF) assay; type: functional, organism-based; conditions: Erythrocyte
HepG2 = test: Cytotoxicity against human HepG2 cells assessed as cell viability measured after 48 hrs by MTT assay; type: functional, cell-based; conditions: HepG2, 48 h
Plasmodium cynomolgi [4] = test: (§1) Antiplasmodial activity against hypnozoite Plasmodium cynomolgi B strain infected in Macaca mulatta hepatocytes incubated with sporozoite containing salivary gland homogenate obtained from dissected Anopheles dirus mosquitoes (infected with Plasmodium cynomolgi B strain) treatment started on day 4 post infection and continued daily for 4 days into fresh changed media until day 8 assessed as Liver stage (LS) activity by measuring prophylactic mode by immunofluorescent staining analysis; type: functional, organism-based; conditions: Hepatocyte
Plasmodium cynomolgi [5] = test: as §1, with “schizont” for “hypnozoite”; type: functional, organism-based; conditions: Hepatocyte
Plasmodium cynomolgi [6] = test: as §1, with “radical cure” for “prophylactic”; type: functional, organism-based; conditions: Hepatocyte
Plasmodium cynomolgi [7] = test: as §1, with “schizont” for “hypnozoite”, “radical cure” for “prophylactic”; type: functional, organism-based; conditions: Hepatocyte
[8] = as §1, with “Selectivity index, ratio of CC50 for Macaca mulatta hepatocytes to IC50 for antiplasmodial” for “Antiplasmodial”; type: toxicity, cell-based; conditions: rhesus monkey, read-out: Selectivity Index
[9] = as §1, with “Selectivity index, ratio of CC50 for Macaca mulatta hepatocytes to IC50 for antiplasmodial” for “Antiplasmodial”, “schizont” for “hypnozoite”; type: toxicity, cell-based; conditions: rhesus monkey, read-out: Selectivity Index
[10] = as §1, with “Selectivity index, ratio of CC50 for Macaca mulatta hepatocytes to IC50 for antiplasmodial” for “Antiplasmodial”, “schizont” for “hypnozoite”, “radical cure” for “prophylactic”; type: toxicity, cell-based; conditions: rhesus monkey, read-out: Selectivity Index
Plasmodium yoelii [11] = test: In vivo antiplasmodial activity against asexual blood-stage (ABS) Plasmodium yoelii MRA-428 infected in 4-day suppression CF1 mouse model assessed as reduction in parasitemia treated 24 hrs post infection daily measured on day 4; type: functional
Plasmodium yoelii [12] = test: In vivo antiplasmodial activity against asexual blood-stage (ABS) Plasmodium yoelii MRA-428 infected in 4-day suppression CF1 mouse model assessed as reduction in parasitemia by measuring protection at 30 mg/kg, po treated 24 hrs post infection daily measured up to 28 days; type: functional, organism-based; conditions: time <= 28.0 day
[13] = Toxicity in CF1 mouse infected with asexual blood-stage (ABS) Plasmodium yoelii MRA-428 assessed as clinical toxicity at 0.3 to 30 mg/kg, po treated 24 hrs post infection measured after 4 days; type: organism-based; conditions: in vivo, dose 0.3-30 mg/kg
[14] = Toxicity in CF1 mouse infected with asexual blood-stage (ABS) Plasmodium yoelii MRA-428 assessed as behavioural change at 0.3 to 30 mg/kg, po treated 24 hrs post infection measured after 4 days; type: organism-based; conditions: in vivo, dose 0.3-30 mg/kg
Hepatocyte = test: Cytotoxicity against Macaca mulatta hepatocytes assessed as cell viability measured after 48 hrs by MTT assay; type: toxicity, cell-based; conditions: rhesus monkey, 48 h
[15] = human, microsomes, 1 h
[16] = mouse, microsomes, 1 h
[17] = as §1, with “Selectivity index, ratio of CC50 for Macaca mulatta hepatocytes to IC50 for antiplasmodial” for “Antiplasmodial”, “radical cure” for “prophylactic”; type: toxicity, cell-based; conditions: rhesus monkey, read-out: Selectivity Index
Plasmodium berghei [18] = test: In vivo antiplasmodial activity against luciferase expressing liver stage Plasmodium berghei ANKA MRA-868 sporozoites infected in Albino C57BL/6 mouse model assessed as blood stage infection at 40 mg/kg, po daily measured 72 hrs; type: functional, organism-based
[19] = Toxicity in CF1 mouse infected with asexual blood-stage (ABS) Plasmodium yoelii MRA-428 assessed as hunching at 0.3 to 30 mg/kg, po treated 24 hrs post infection measured after 4 days; type: organism-based; conditions: in vivo, 96 h, dose 0.3-30 mg/kg, time 4 day
[20] = Toxicity in CF1 mouse infected with asexual blood-stage (ABS) Plasmodium yoelii MRA-428 assessed as hyperactivity at 0.3 to 30 mg/kg, po treated 24 hrs post infection measured after 4 days; type: organism-based; conditions: in vivo, 96 h, dose 0.3-30 mg/kg, time 4 day
[21] = Toxicity in CF1 mouse infected with asexual blood-stage (ABS) Plasmodium yoelii MRA-428 assessed as lethargy at 0.3 to 30 mg/kg, po treated 24 hrs post infection measured after 4 days; type: organism-based; conditions: in vivo, 96 h, dose 0.3-30 mg/kg, time 4 day
[22] = Toxicity in CF1 mouse infected with asexual blood-stage (ABS) Plasmodium yoelii MRA-428 assessed as ruffled hair at 0.3 to 30 mg/kg, po treated 24 hrs post infection measured after 4 days; type: organism-based; conditions: in vivo, 96 h, dose 0.3-30 mg/kg, time 4 day
[23] = Toxicity in CF1 mouse infected with asexual blood-stage (ABS) Plasmodium yoelii MRA-428 assessed as weight loss at 0.3 to 30 mg/kg, po treated 24 hrs post infection measured after 4 days; type: organism-based; conditions: in vivo, 96 h, dose 0.3-30 mg/kg, time 4 day
Plasmodium berghei [24] = test: In vivo antiplasmodial activity against luciferase expressing liver stage Plasmodium berghei ANKA MRA-868 sporozoites infected in Albino C57BL/6 mouse model assessed as protection at 10 mg/kg, po daily measured 24 to 72 hrs by real-time In Vivo Imaging System (IVIS); type: functional; conditions: time lower 24.0 hrs, time upper […]

Compound | IC50 (Plasmodium falciparum [1]) [pM] | IC50 (Plasmodium falciparum [2]) [nM] | IC50 (Plasmodium falciparum [3]) [nM] | IC50 (HepG2) [nM] | IC50 (Plasmodium cynomolgi [4]) [nM] | IC50 (Plasmodium cynomolgi [5]) [nM] | IC50 (Plasmodium cynomolgi [6]) [nM] | IC50 (Plasmodium cynomolgi [7]) [nM] | selectivity ratio at 96 h [8] | selectivity ratio at 96 h [9] | selectivity ratio at 96 h [10] | ED90 (Plasmodium yoelii [11]) [mg/kg] | Activity [13] | Activity [14] | CC50 (Hepatocyte) [nM] | t1/2 [15] [h] | CLH [16] [µL/min/mg] | selectivity ratio at 96 h [17] | ED50 (Plasmodium yoelii [11]) [mg/kg] | further results
O=c1c2ccc(Oc3ccc(OC(F)(F)F)cc3)cc2[nH]c2cc(F)c(Cl)cc12 | 4380 | 4.35 | 48.4 | > 200000 | 410 | 600 | > 20000 | 6550 | > 48.8 | > 33.3 | > 3.05 | 0.17 | Non-toxic | Non-toxic | > 20000 | > 1 | < 3.125 |  |  | Activity (Plasmodium yoelii [12]): Active; Out Of 4 - 3 Mouse Cured
O=c1c2ccc(OCc3cccc(OC(F)(F)F)c3)cc2[nH]c2cc(F)cc(Cl)c12 | 30 | 0.004 | 20.4 | > 200000 | 1170 | 150 | 4230 | 3520 | 5.09 | 39.5 | 1.68 |  | Non-toxic | Non-toxic | 5930 | > 1 | 33.5 | 1.4 |  | Activity (Plasmodium berghei [18]): Active; Out Of 5 - 5 Mouse Cured
CCN(CC)CCCC(C)Nc1ccnc2cc(Cl)ccc12 (stereo not drawn) [CHLOROQUINE] |  |  |  |  |  |  |  |  |  |  |  |  | Non-toxic | Non-toxic |  |  |  |  |  | 
O=c1c2c([nH]c3ccc(Oc4ccc(OC(F)(F)F)cc4)cc13)CCCC2 | 7550 | 13.3 | 29.9 | > 200000 | 3810 | 500 | > 20000 | > 20000 | > 5.25 | > 40 |  | 7.8 | Non-toxic | Non-toxic | > 20000 |  | 56.8 |  | 1.8 | Activity [19]: Non-toxic; Activity [20]: Non-toxic; Activity [21]: Non-toxic; Activity [22]: Non-toxic; Activity [23]: Non-toxic
COc1cc(C)c2c(Oc3cccc(C(F)(F)F)c3)c(OC)cc(NC(C)CCCN)c2n1 (stereo not drawn) [TAFENOQUINE] |  |  |  |  | 170 | 40 | 7810 | 5440 | 89.4 | 380 | 2.79 |  |  |  | 15200 |  |  | 1.95 |  | Activity (Plasmodium berghei [24]): Not active; Out Of 5 - 0 Mouse Cured
CC(C)(C)OC(=O)N1CCC(Oc2ccc3c(=O)c4c(F)cc(Cl)cc4[nH]c3c2)CC1 | 0.7 | 0.295 | 271 | 59900 | 470 | 50 | 1780 | 670 | 4.62 | 43.4 | 3.24 | 0.72 | Non-toxic | Non-toxic | 2170 | > 1 | 58.5 | 1.22 | 0.34 | 
O=c1c2ccc(OCc3ccc(C(F)(F)F)cc3)cc2[nH]c2cc(Cl)cc(F)c12 | 0.052 | 0.182 | 34.9 | 153000 | 640 | 140 | 910 | 810 | 3.33 | 15.2 | 2.63 | 1.42 | Non-toxic | Non-toxic | 2130 | > 1 | < 3.125 | 2.34 | 0.32 | 
O=c1c2ccc(Oc3cccc(OC(F)(F)F)c3)cc2[nH]c2cc(Cl)cc(F)c12 | 70 | 0.02 | 8.6 | > 200000 | 560 | 30 | > 20000 | 16100 | > 35.7 | > 667 | > 1.24 | 0.9 | Non-toxic | Non-toxic | > 20000 |  | 273 |  | 0.19 | 
CCCCCCOc1ccc2c(=O)c3c([nH]c2c1)CCCC3 | 477 | 2.73 | 5.11 | > 200000 | > 20000 | 2820 | > 20000 | > 20000 |  | > 7.09 |  |  |  |  | > 20000 |  | 37.6 |  |  | Activity (Plasmodium berghei [18]): Active; Out Of 5 - 5 Mouse Cured; Activity [19]: Non-toxic; Activity [20]: Non-toxic; Activity [21]: Non-toxic; Activity [22]: Non-toxic; Activity [23]: Non-toxic
CC(C)(C)OC(=O)N1CCC(Oc2ccc3c(=O)c4c(F)cc(Cl)cc4[nH]c3c2)C1 (stereo not drawn) |  | 0.183 | 113 | > 2500 | 670 | 70 | 2480 | 960 | 18.4 | 176 | 12.8 | 0.43 | Non-toxic | Non-toxic | 12300 | > 1 | < 3.125 | 4.96 | 0.1 | 
O=c1c2ccc(OCc3ccc(OC(F)(F)F)cc3)cc2[nH]c2cc(Cl)cc(F)c12 | 0.041 | 0.128 | 30.4 | 177000 | 470 | 80 | 470 | 280 | 1.76 | 10.4 | 2.96 | 0.55 | Non-toxic | Non-toxic | 830 | > 1 | < 3.125 | 1.77 | 0.1 | 
